Measurements as given in publication PMC10116495 (Journal of the American Chemical Society, 2023).
Residues, ends and D or L forms follow the SMILES beside them. *: point of attachment. Cbz = O=C(OCc1ccccc1)*

Experiments:
NSD2 [1] = assay: MG132, MLN4924 and TAK243 inhibitor assay; format: cell-based; conditions: U2OS cells, 6 h, 10 μM MG132, 1 μM MLN4924 or 1 μM TAK243
H3K36me2 [2] = conditions: KMS11 t(4;14) multiple myeloma cells; cited from earlier work
NSD2-PWWP1 = molecular target: T1, NSD2-PWWP1 (Homo sapiens, UniProt O96028); conditions: previously shown by the authors; cited from earlier work
T1 sequence (O96028 222-286 limits assumed): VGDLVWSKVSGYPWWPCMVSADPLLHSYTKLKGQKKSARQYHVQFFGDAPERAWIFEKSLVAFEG

NSD2 [3] = molecular target: T2, NSD2 (Homo sapiens, UniProt O96028); assay: In-cell western; format: cell-based; conditions: U2OS cells, ICW
T2 sequence (O96028 1-627 limits assumed): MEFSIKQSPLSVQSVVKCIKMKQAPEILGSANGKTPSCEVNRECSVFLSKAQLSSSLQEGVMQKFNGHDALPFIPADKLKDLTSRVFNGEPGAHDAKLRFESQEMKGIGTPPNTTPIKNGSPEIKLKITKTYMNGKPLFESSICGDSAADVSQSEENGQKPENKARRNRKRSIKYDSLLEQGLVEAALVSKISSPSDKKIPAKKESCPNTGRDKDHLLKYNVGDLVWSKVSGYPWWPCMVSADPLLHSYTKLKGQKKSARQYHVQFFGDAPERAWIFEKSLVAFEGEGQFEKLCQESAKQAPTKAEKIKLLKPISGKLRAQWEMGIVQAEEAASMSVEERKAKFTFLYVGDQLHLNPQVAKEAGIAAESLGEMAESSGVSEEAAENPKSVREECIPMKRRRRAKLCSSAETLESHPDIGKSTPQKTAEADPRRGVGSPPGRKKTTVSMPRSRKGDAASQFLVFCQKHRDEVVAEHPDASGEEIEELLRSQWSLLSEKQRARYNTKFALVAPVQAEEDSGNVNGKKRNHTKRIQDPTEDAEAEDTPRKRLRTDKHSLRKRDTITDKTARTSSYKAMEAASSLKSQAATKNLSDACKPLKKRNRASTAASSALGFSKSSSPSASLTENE

NSD2-long [4] = molecular target: T3, NSD2-long (Homo sapiens, UniProt O96028); assay: Western blot of NSD2 in U2OS cells; format: cell-based; conditions: 10 μM, without replenishing the compound
T3 sequence (O96028 1-1365): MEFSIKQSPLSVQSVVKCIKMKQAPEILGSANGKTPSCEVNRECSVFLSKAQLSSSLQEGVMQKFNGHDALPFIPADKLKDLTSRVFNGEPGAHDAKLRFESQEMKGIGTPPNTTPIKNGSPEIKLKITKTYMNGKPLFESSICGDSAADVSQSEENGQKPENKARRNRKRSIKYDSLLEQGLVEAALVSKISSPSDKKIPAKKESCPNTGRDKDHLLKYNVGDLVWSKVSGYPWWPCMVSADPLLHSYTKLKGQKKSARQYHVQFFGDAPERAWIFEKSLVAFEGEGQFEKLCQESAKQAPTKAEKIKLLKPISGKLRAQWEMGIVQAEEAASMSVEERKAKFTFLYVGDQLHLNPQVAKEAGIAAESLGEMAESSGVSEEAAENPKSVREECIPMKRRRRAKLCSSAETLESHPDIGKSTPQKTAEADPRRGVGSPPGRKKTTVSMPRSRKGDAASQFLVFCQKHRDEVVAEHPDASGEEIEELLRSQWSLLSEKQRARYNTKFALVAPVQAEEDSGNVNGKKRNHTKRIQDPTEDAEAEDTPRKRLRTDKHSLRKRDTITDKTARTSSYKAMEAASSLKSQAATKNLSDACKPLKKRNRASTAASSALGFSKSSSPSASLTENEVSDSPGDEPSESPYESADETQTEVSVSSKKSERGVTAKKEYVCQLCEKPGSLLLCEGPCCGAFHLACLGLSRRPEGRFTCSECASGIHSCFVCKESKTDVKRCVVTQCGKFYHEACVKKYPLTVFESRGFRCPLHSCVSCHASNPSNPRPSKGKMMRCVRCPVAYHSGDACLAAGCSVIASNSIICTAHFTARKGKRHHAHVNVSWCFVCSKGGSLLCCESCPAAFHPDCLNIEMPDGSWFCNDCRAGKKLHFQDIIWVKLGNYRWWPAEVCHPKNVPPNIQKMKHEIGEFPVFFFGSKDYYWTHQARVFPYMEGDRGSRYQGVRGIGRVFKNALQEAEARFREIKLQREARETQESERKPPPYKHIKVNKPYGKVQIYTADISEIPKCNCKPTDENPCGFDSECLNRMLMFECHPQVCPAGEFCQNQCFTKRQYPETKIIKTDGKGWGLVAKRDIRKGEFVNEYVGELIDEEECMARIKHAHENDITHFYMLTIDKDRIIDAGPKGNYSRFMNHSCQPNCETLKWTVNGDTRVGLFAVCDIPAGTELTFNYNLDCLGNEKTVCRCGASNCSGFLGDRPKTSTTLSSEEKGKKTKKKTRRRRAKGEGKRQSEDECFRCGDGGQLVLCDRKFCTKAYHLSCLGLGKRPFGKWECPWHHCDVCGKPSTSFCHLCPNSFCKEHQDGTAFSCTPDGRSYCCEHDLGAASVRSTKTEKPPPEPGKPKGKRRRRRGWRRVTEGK

[5] = molecular target: T4, NanoLuc-NSD2-PWWP1 / HaloTag-Ubiquitin (Homo sapiens, UniProt O96028); assay: NanoBRET ubiquitination assay; format: cell-based; conditions: compared to UNC6934 or the vehicle
T4 sequence (O96028 222-286 limits assumed): T1 sequence (O96028 222-286 limits assumed)

NSD2 [6] = molecular target: T2, NSD2; assay: Global proteomics; format: cell-based; conditions: U2OS cells, 5 μM, 6 h, 7863 quantifiable proteins
NSD1 = NSD1 (Homo sapiens, UniProt Q96L73); assay: Global proteomics and immunoblotting of NSD1 in U2OS cells; format: cell-based; conditions: 5 μM, 6 h proteomics, confirmed by immunoblotting
NSD3 = molecular target: T5, NSD3 (Homo sapiens, UniProt Q9BZ95); assay: Global proteomics and immunoblotting of NSD3 in U2OS cells; format: cell-based; conditions: 5 μM, 6 h proteomics, confirmed by immunoblotting
T5 sequence (Q9BZ95 1-1437): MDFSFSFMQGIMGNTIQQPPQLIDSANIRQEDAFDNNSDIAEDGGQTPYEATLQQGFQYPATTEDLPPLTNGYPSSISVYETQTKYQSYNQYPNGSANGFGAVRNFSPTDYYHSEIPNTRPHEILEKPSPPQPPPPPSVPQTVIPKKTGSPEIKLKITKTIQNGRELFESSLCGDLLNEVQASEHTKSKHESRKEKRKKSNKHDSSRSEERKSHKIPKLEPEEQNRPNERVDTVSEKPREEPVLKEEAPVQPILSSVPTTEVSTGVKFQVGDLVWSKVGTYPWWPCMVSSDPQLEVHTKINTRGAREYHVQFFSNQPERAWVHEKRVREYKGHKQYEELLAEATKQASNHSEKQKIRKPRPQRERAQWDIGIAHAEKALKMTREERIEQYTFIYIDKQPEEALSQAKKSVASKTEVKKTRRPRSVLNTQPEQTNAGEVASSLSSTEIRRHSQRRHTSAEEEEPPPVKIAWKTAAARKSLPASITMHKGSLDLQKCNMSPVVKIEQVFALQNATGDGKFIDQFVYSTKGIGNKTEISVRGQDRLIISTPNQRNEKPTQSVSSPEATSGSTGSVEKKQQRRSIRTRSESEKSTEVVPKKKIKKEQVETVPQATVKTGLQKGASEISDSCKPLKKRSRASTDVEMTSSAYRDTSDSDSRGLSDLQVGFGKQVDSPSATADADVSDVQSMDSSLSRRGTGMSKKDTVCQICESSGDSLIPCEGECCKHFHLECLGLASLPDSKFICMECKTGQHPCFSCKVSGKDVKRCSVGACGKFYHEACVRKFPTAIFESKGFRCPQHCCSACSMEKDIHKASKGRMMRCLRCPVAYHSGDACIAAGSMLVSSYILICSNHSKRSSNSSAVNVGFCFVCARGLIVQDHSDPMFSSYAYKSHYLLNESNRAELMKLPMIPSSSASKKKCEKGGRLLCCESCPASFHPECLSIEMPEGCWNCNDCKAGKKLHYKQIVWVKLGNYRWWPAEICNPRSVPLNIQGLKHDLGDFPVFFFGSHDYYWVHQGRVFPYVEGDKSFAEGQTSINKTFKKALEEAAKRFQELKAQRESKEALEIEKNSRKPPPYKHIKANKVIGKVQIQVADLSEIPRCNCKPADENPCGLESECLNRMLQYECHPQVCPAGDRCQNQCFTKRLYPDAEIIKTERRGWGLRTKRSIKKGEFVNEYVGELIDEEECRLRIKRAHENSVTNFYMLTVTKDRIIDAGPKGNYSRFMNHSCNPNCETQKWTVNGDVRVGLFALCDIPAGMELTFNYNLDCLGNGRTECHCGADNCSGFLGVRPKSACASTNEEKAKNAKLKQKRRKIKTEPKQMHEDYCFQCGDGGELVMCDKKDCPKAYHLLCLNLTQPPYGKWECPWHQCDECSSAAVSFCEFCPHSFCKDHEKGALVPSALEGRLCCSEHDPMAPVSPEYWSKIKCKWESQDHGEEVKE

NSD2-long [7] = molecular target: T3, NSD2-long; assay: NSD2 immunoblot in KMS11 cells; format: cell-based; conditions: read-out: IB: NSD2-long DC50, 1−60 μM, 6 days
H3K36me2 [8] = assay: H3K36me2 immunoblot in KMS11 cells; format: cell-based
H3K36me1 = H3K36me1 immunoblot in KMS11 cells; format: cell-based
H3K36me3 = H3K36me3 immunoblot in KMS11 cells; format: cell-based
NSD2 and H3K36me2 [9] = assay: NSD2 and H3K36me2 immunoblot in MM1S cells; format: cell-based; conditions: NSD2 E1099K, 10 μM, 6 days
NSD2 and H3K36me2 [10] = assay: NSD2 and H3K36me2 immunoblot in RS411 cells; format: cell-based; conditions: RS411, NSD2 E1099K, 10 μM, 6 days
KMS11 cells [11] = assay: KMS11 CellTiter-Glo luminescence cell viability assay; format: cell-based; conditions: up to 30 μM, 8 days
MM1S cells = assay: MM1S dose-response treatment and proliferation assay; format: cell-based; conditions: increasing concentrations, 8 days, trypan blue cell count
MDA-MB-231 = MDA-MB-231 proliferation assay; format: cell-based; conditions: 20 μM, 5 days, confluency
U2OS = U2OS proliferation assay; format: cell-based; conditions: 20 μM, 5 days, confluency
HEK293 = HEK293 proliferation assay; format: cell-based; conditions: 20 μM, 5 days, confluency
KMS11 cells [12] = assay: Adhesion assay in KMS11 cells; format: cell-based; conditions: 25 μM, 14 days, compared to control (UNC8587)
NSD family members = conditions: immunoblot

Sequence of NSD1 (Q96L73 whole entry): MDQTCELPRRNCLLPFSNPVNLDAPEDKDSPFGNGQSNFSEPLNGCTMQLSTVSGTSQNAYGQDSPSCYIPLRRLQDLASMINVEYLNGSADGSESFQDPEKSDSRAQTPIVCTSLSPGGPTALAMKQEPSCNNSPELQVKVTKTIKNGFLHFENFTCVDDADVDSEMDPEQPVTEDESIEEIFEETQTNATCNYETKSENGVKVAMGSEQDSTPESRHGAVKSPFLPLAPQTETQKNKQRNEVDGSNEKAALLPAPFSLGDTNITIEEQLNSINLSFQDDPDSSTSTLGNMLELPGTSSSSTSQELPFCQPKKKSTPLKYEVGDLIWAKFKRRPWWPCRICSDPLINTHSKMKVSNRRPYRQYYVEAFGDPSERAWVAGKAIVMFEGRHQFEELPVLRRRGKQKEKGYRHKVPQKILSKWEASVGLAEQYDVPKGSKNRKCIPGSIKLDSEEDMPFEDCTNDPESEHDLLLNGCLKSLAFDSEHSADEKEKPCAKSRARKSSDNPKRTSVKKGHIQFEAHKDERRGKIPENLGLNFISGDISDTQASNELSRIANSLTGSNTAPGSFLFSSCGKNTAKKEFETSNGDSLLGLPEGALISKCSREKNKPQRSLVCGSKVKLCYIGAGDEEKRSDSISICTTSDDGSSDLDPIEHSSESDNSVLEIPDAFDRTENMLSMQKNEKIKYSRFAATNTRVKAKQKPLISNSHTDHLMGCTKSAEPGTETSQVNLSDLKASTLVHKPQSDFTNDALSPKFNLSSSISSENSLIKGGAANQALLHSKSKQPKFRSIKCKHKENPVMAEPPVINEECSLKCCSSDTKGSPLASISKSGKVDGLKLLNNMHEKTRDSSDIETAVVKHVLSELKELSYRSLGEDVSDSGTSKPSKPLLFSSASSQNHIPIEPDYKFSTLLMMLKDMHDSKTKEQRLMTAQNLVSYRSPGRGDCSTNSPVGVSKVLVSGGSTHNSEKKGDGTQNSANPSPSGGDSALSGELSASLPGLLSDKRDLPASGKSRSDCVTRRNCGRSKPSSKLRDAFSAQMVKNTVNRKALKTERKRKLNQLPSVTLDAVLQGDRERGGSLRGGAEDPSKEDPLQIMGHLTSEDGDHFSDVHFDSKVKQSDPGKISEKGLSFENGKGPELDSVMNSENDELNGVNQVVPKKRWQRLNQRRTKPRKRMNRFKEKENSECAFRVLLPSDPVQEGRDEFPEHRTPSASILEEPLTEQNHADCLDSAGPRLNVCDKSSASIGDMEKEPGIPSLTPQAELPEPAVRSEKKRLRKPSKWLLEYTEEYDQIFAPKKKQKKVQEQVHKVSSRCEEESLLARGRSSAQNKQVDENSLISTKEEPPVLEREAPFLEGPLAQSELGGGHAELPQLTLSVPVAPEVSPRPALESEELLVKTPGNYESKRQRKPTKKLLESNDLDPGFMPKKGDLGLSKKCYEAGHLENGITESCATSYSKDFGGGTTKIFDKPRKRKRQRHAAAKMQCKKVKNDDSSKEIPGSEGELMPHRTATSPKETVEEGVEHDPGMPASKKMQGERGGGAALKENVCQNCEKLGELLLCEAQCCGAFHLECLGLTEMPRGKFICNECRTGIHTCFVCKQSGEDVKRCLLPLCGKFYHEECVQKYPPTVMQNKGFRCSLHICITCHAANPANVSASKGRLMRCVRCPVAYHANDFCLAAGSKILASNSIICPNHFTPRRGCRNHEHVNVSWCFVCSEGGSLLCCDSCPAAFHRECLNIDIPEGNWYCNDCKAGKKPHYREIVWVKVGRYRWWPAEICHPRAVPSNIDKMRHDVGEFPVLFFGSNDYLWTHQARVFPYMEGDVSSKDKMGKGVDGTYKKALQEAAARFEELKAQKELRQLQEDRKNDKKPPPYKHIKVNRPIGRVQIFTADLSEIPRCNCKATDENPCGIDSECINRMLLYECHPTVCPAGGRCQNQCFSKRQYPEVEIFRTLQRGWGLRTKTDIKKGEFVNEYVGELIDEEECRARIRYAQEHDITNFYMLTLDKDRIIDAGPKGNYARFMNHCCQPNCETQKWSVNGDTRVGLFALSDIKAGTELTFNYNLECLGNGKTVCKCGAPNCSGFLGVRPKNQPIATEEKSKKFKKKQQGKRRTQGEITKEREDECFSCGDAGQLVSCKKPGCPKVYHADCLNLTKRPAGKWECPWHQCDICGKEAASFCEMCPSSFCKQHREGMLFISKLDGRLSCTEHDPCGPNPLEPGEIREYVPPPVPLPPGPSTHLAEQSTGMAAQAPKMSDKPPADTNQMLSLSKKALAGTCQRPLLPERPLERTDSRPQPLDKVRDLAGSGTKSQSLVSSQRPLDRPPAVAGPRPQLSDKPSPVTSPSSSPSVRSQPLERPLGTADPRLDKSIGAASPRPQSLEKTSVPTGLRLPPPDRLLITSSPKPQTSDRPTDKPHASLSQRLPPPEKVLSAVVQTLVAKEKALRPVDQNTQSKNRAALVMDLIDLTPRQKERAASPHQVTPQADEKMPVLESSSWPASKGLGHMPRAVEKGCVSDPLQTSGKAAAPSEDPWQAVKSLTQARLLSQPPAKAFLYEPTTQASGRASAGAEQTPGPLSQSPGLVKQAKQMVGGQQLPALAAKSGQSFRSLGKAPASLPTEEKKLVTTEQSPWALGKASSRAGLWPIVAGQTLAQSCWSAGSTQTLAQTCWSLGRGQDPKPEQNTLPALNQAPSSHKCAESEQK

## CC(C)C[C@@H](C=O)NC(=O)[C@H](CC(C)C)NC(=O)[C@H](CC(C)C)NC(=O)OCc1ccccc1 [MG132] (Cbz-Leu-Leu-Leu-aldehyde)
NSD2 [1]
  effect of inhibitor on UNC8153-mediated NSD2 degradation: completely ablates NSD2 degradation

## NS(=O)(=O)OC[C@@H]1C[C@@H](n2ccc3c(N[C@H]4CCc5ccccc54)ncnc32)C[C@@H]1O [MLN4924]
NSD2 [1]
  effect of inhibitor on UNC8153-mediated NSD2 degradation: prevented NSD2 degradation

## NS(=O)(=O)OC[C@H]1C[C@@H](Nc2ccnc3cc(-c4cccc(SC(F)(F)F)c4)nn23)[C@H](O)[C@@H]1O [TAK243]
NSD2 [1]
  effect of inhibitor on UNC8153-mediated NSD2 degradation: prevented NSD2 degradation

## O=C1COc2cc(C(=O)N(Cc3ccc(C(=O)Nc4ccncn4)cc3)C3CC3)ccc2N1 [UNC6934]
H3K36me2 [2]
  global H3K36me2 levels in KMS11 cells: remain unaltered

## O=C(CCCC[C@@H]1SC[C@@H]2NC(=O)N[C@@H]21)NCCOCCOCCOCCOCCOCCOCCOCCOCCOCCOCCOCCNC(=O)c1ccc(NC(=O)c2ccc(CN(C(=O)c3ccc4c(c3)OCC(=O)N4)C3CC3)cc2)cc1 [UNC7096]
NSD2-PWWP1
  binding to NSD2 (in words): maintains binding to NSD2

## NCCCCCCNC(=O)c1ccc(NC(=O)c2ccc(CN(C(=O)c3ccc4c(c3)OCC(=O)N4)C3CC3)cc2)cc1 [UNC8153]
NSD2 [3]; 3 and 10 μM
  NSD2 degradation 30 min after compound treatment: ~ 40%
NSD2 [3]; confirmed by immunoblotting
  hook effect in NSD2 reduction: a hook effect occurs at high concentrations
NSD2-long [4]
  extent of degradation of NSD2-long 96 h after a single treatment: above 60%
[5]
  BRET signal between HaloTag-ubiquitin and NanoLuc-NSD2-PWWP1: increased BRET signals
NSD2 [6]
  selectivity of NSD2 degradation within the measurable proteome: NSD2 was selectively degraded
NSD1
  degradation of NSD1: not degraded
NSD3
  degradation of NSD3: not degraded
NSD2-long [7]
  DC50: 3.41 µM
H3K36me2 [8]; 20 μM, 2−8 days, loss after 6 days, control 8 days
  H3K36me2 levels, time course: Significant loss of the H3K36me2 mark
H3K36me2 [8]; 1−60 μM, 6 days
  H3K36me2 levels, dose response: dose-dependent reduction of the H3K36me2 mark
H3K36me1
  H3K36me1 level: increase in H3K36 monomethylation
H3K36me3
  H3K36me3 level: decreased slightly
NSD2 and H3K36me2 [9]
  NSD2 and H3K36me2 modulation in MM1S cells: similarly responsive
NSD2 and H3K36me2 [10]
  NSD2 and H3K36me2 modulation in RS411 cells: similarly responsive
KMS11 cells [11]
  proliferation / cell viability of KMS11 cells: did not result in a significant change in proliferation
MM1S cells
  proliferation of MM1S cells: mild antiproliferative effect
MDA-MB-231
  proliferative potential of MDA-MB-231 cells: no significant changes in proliferative potential
U2OS
  proliferative potential of U2OS cells: no significant changes in proliferative potential
HEK293
  proliferative potential of HEK293 cells: no significant changes in proliferative potential
KMS11 cells [12]
  cell adhesion to Matrigel: Significant antiadhesive effects
NSD family members
  selectivity for NSD2 over other NSD family members in MM1S cells: selectively degrades NSD2 over other NSD family members
